Broadly, the IC50 is the concentration that gives 50% inhibition.

Each structure is given as a SMILES string.

The target of this test is hBPGM (Homo sapiens (Human), UniProt P07738). The test can be described thus: BPGM Synthase Assay. It counts as biochemical. To be noted: Table 6 additional results; read-out: huBPGM: synthase Enzyme IC50. The protocol:
Example B1. BPGM Synthase Assay
The following materials were used in this assay: deionized water; Bisphosphoglycerate mutase (BPGM; Standard Buffer: 50 mM Tris, 0.01% Tween 20, pH 7.4); BPGM Reaction Buffer (50 mM Tris, 0.01% Tween 20, 3.23 mM KH2PO4, pH 7.4); dithiothreitol (DTT; Stock solution: 100 mM in Standard Buffer); 384-Well Black Assay Plate (Corning, P/N 3575); DMSO; BPGM Stock Solution (500 nM in BPGM Standard Buffer); Glyceraldehyde 3-phosphate dehydrogenase (GAPDH; Stock Solution: 40 U/mL in 20 mM Tris-HCL Buffer with 20% Glycerol, 1 mM EDTA, 1 mM DTT); Glyceraldehyde 3-phosphate (GAP; Stock Solution: 20 mM in BPGM Standard Buffer); 3-PG Stock Solution (500 μM in BPGM Standard Buffer); Nicotinamide adenine dinucleotide (NAD; Stock Solution: 50 mM in BPGM Standard Buffer); Koningic Acid (1 mM Stock in DMSO); Resazurin Stock Solution (10 mM in DMSO); Diaphorase Stock Solution (40 U/mL in BPGM Standard Buffer); DTT Reaction Buffer (1 mM DTT in BPGM Reaction Buffer); Enzyme Solution (5 nM BPGM, 0.4 U/mL GAPDH in DTT Reaction Buffer); GAPDH Solution (0.4 U/mL GAPDH in DTT Reaction Buffer); Substrate Solution (2 mM NAD, 20 μM 3PG, 800 μM GAP in DTT Reaction Buffer); and Resazurin Solution (5 U/mL Diaphorase, 500 μM Resazurin in BPGM Standard Buffer).
To the assay plate was added Enzyme Solution (20 uL) to columns 2-22 and 24 of the assay plate. To columns 1 and 23 was added GAPDH Solution (20 uL). A separate compound plate was prepared at the desired concentrations and all wells were normalized with 5% DMSO. The compound plate was incubated for 30 minutes at RT. Next, the substrate solution (20 μL) was dispensed to all reaction wells and the plate was incubated for 60 minutes at RT. Koningic acid (1 μL) was added and the plate was incubated for 10 minutes at RT. During this time period, the NADH fluorescence was read at ex: 360/em: 460. Next, Resazurin Solution (10 μL) was added to all reaction wells and the plate was incubated for 30 minutes at RT. The resorufin fluorescence was then read at ex:544/em:590.

hBPGM, sequence (P07738 whole entry, looked up): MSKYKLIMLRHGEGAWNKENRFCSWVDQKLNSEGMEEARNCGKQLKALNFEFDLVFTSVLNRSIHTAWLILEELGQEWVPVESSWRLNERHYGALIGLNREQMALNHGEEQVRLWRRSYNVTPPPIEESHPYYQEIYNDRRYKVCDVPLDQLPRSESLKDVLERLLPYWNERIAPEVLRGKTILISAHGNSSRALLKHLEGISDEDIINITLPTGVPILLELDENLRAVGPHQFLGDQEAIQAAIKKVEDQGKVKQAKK

Consider `Cc1ccc(C#N)c(OCC(=O)N/N=C/c2cccc(-c3cc(O)c(C(=O)O)cc3F)c2)n1` [Example 332], for which the IC50 was 0.45 µM.

Regarding `Cc1nc(COc2ncccn2)sc1-c1cccc(-c2ccc(C(=O)NCC(=O)N3CCC(C(=O)O)C3)cc2)n1` (centres unmarked) [Example 91], the IC50 was more than 25 µM. For `Cc1nc(CCc2ccccc2)sc1-c1cccc(-c2ccc(C(=O)O)c(O)c2)c1` [Example 109] the value was 8.1 µM; for `Cc1nc(COc2ccccn2)sc1-c1cccc(-c2ccc(C(=O)O)nc2)c1` [Example 58], more than 25 µM. For `COC(=O)NCc1nc(C)c(-c2csc(-c3ccc(C(=O)NS(=O)(=O)c4cccc(OCC(=O)O)c4)cc3)n2)s1` [Example 331] the value was more than 25 µM; for `Cc1ccc(C#N)c(OCc2nc(C)c(-c3cccc(-c4ccc(C(=O)O)c(O)c4)c3)s2)n1` [Example 268], 1.2 µM; for `Cc1nc(COc2ncccn2)sc1-c1cccc(-c2ccc(C(=O)NCC(=O)N3CCC(C(=O)O)CC3)cc2)n1` [Example 90], more than 25 µM. For `Cc1nc(COc2ncccn2)sc1-c1cccc(-c2cnc(C(=O)O)nc2)n1` [Example 85] the value was more than 25 µM; for `Cc1nc(COc2ccc(C(F)(F)F)nc2)sc1-c1cccc(-c2ccc(C(=O)O)cc2)n1` [Example 61], 1.3 µM; for `COC(=O)NCc1nc(C)c(-c2cc(-c3ccc(C(=O)O)c(O)c3)sn2)s1` [Example 157], 0.8 µM. As for `Cc1nc(COc2ncccn2)sc1-c1cccc(-c2ccc(C(=O)O)c(C(F)F)c2)n1` [Example 54], the IC50 worked out at 0.18 µM. For `Cc1nc(COc2ncccn2)sc1-c1cccc(-c2ccc(C(=O)N3CCC(OCC(=O)O)CC3)cc2)n1` [Example 84], the half-maximal inhibitory concentration (IC50) is more than 25 µM. For `Cc1nc(COc2ccc(C(F)(F)F)nn2)sc1-c1cccc(-c2ccc(C(=O)O)cc2)n1` [Example 48] the value was 1.9 µM; for `Cc1nc(COCc2ccccn2)sc1-c1csc(-c2cc(O)c(C(=O)O)cc2F)n1` [Example 144], 0.2 µM; for `Cc1nc(C)c(N2CCN(c3ccc(C(=O)O)c(O)c3)C2=O)s1` [Example 339], more than 25 µM. For `CNC(=O)CCc1nc(C)c(-c2cccc(-c3ccc(C(=O)O)c(O)c3)c2)s1` [Example 264] the value was 7 µM; for `Cc1nc(C)c(COc2ccc(C(=O)O)c(O)c2)s1` [Example 338], more than 25 µM. For `Cc1nc(CNCC(C)(C)C)sc1-c1cccc(-c2ccc(C(=O)O)cc2)c1` [Example 42] the value was more than 25 µM; for `Cc1nc(COc2ccccn2)sc1-c1ccc(-c2ccc(C(=O)O)c(O)c2)s1` [Example 340], 3.6 µM; for `Cc1nc(C)c(/C=C/c2ccc(C(=O)O)c(O)c2)s1` [Example 333], 11 µM. Regarding `Cc1nc(C)c(NC(=O)Nc2ccc(C(=O)O)c(O)c2)s1` [Example 337], the IC50 was more than 25 µM. For `COC(=O)NCc1nc(C)c(-c2csc(-c3cc(N)c(C(=O)O)cc3F)n2)s1` [Example 195] the value was 1.2 µM; for `Cc1nc(Cc2ccc(C(F)(F)F)cc2)sc1-c1cccc(-c2ccc(C(=O)O)c(O)c2)c1` [Example 312], 6.6 µM; for `Cc1nc(COc2ncccn2)sc1-c1cccc(-c2cc(C(=O)O)co2)n1` [Example 39], 18 µM. The same measure for `Cc1nc(COc2ncccn2)sc1-c1cccc(-c2cc(C(=O)O)nn2C(C)C)n1` [Example 30]: 15 µM; for `Cc1nc(COc2ncccn2)sc1-c1cccc(-c2ccc(C(=O)NC(CC(=O)O)c3ccccc3)cc2)n1` (centres unmarked) [Example 35]: 2.6 µM; for `Cc1nc(COCC2CCCCO2)sc1-c1cccc(-c2ccc(C(=O)O)cc2)c1` (centres unmarked) [Example 45]: 1.4 µM. `CC(=O)NCCc1nc(C)c(-c2cccc(-c3ccc(C(=O)O)c(O)c3)c2)s1` [Example 258]: the IC50 was found to be 11 µM.

With `Cc1nc(COc2ccc(F)cn2)sc1-c1ccn(-c2ccc(C(=O)O)cc2)n1` [Example 18], the IC50 worked out at 0.65 µM. The same measure for `Cc1nc(COc2ncccn2)sc1-c1cccc(-c2ccc(C(=O)O)o2)n1` [Example 33]: 11 µM; for `Cc1nc(COc2ccc(F)cn2)sc1-c1cccc(-c2ccc(C(=O)O)c(O)c2)n1` [Example 26]: 0.43 µM. Regarding `Cc1ccc(C#N)c(OCCc2ccn(-c3cccc(-c4ccc(C(=O)O)c(O)c4)c3)n2)n1` [Example 311], the IC50 is 21 µM.

As to `Cc1nc(COc2ncccn2)sc1-c1cccc(-c2ccc3c(C(=O)O)c[nH]c3c2)n1` [Example 334], the IC50 is 1.7 µM.

On to `Cc1nc(C)c(-c2ccnc(-c3ccc(C(=O)O)c(O)c3)c2)s1` [Example 310], for which the IC50 was 2 µM. For `Cc1nc(COC(=O)N(C)C)sc1-c1cccc(-c2ccc(C(=O)O)cc2)n1` [Example 64] the value was 0.91 µM; for `Cc1nc(C)c(-c2cncc(-c3ccc(C(=O)O)c(O)c3)c2)s1` [Example 299], 25 µM.

For `Cc1nc(COC2CCOC2)sc1-c1cccc(-c2ccc(C(=O)O)cc2)c1` (centres unmarked) [Example 44], the IC50 came out at 1.9 µM. For `Cc1nc(COc2ncccn2)sc1-c1cccc(-c2ccc(C(=O)O)cc2C(C)C)n1` [Example 28] the value was more than 25 µM; for `Cc1nc(C)c(-c2cccc(-c3ccc(C(=O)O)cc3)c2)s1` [Example 326], 6.4 µM. For `Cc1nc(CCC(N)=O)sc1-c1cccc(-c2ccc(C(=O)O)c(O)c2)c1` [Example 265] the value was 7.8 µM; for `Cc1nc(CO)sc1-c1cccc(-c2c[nH]c(C(=O)O)c2)n1` [Example 77], more than 25 µM. Take `Cc1nc(CN2CCOCC2=O)sc1-c1cccc(-c2ccc(C(=O)O)c(O)c2)c1` [Example 261]: the IC50 came to 20 µM. As for `Cc1nc(CN2CCCCC2)sc1-c1cccc(-c2ccc(C(=O)O)c(O)c2)c1` [Example 298], the IC50 amounted to 5 µM. For the compound `O=C(O)c1ccc(-c2nc(-c3ccnc(COc4ncccn4)c3)cs2)cc1` [Example 37], the IC50 is 7.6 µM.

Regarding `Cc1nc(C)c(-c2ccc(O)c(-c3ccc(C(=O)O)cc3)c2)s1` [Example 304], the IC50 is 54 µM. The same measure for `Cc1nc(COc2ccccn2)sc1-c1cccc(-c2ccc(C(=O)O)cn2)c1` [Example 69]: 5.5 µM.

Take `Cc1nc(C)c(-c2cccc(-c3ccc(C(=O)O)c(C(F)(F)F)c3)c2)s1` [Example 314]: the IC50 stood at 100 µM. Regarding `Cc1cc(C(=O)O)cc(C)c1-c1cccc(-c2sc(COc3ncccn3)nc2C)n1` [Example 31], the IC50 is more than 25 µM. Take `Cc1nc(Cc2ccccn2)sc1-c1cccc(-c2ccc(C(=O)O)cc2)c1` [Example 287]: the IC50 came to 0.91 µM. For `Cc1ccc(C#N)c(OCC(=O)N2CC(c3cccc(-c4ccc(C(=O)O)cc4)c3)C2)n1` [Example 322] the value was more than 250 µM. The same measure for `Cc1nc(CO)sc1-c1cccc(-c2ccc(C(=O)NCC(=O)N3CCC(C(=O)O)C3)cc2)n1` (centres unmarked) [Example 92]: more than 25 µM. For `O=C(O)c1ccc(-c2cccc(N3CCC(COc4ncccn4)CC3)n2)cc1` [Example 24] the value was more than 25 µM; for `Cc1nc(COC2CCCCO2)sc1-c1cccc(-c2ccc(C(=O)O)cc2)n1` (centres unmarked) [Example 55], 0.38 µM. In the case of `Cc1ccc(C#N)c(OCCc2nc(C)c(-c3cccc(-c4ccc(C(=O)O)c(O)c4)c3)s2)n1` [Example 107], the IC50 is 1.9 µM. The same measure for `Cc1nc(Cc2cccc(C(F)(F)F)c2)sc1-c1cccc(-c2ccc(C(=O)O)c(O)c2)c1` [Example 317]: 3 µM. Regarding `Cc1nc(C)c(-c2cccc(-c3ccc(C(=O)O)c(O)c3)c2)s1` [Example 329], the IC50 is 2.3 µM. The same measure for `Cc1nc(COCC2CCCO2)sc1-c1cccc(-c2ccc(C(=O)O)cc2)c1` (centres unmarked) [Example 46]: 1.2 µM. For the compound `Cc1nc(COc2ccc(C(F)(F)F)cn2)sc1-c1cccc(-c2ccc(C(=O)O)cc2)n1` [Example 56], the IC50 turned out to be 3.3 µM.

Take `Cc1nc(CNC(=O)C(C)(C)C)sc1-c1cccc(-c2cc(O)c(C(=O)O)cc2F)n1` [Example 150]: the IC50 was determined as 0.5 µM. For `Cc1nc(C)c(-c2cc(-c3ccc(C(=O)O)cc3)ccc2C)s1` [Example 307] the value was more than 250 µM. For `Cc1nc(C)c(-c2cccc(-c3ccc(C(=O)O)cc3)c2C)s1` [Example 306] the value was more than 250 µM; for `Cc1nc(COc2ncccn2)sc1-c1cccc(-c2ccc(C(=O)N[C@@H](C(=O)O)c3ccccc3)cc2)n1` [Example 36], 2.7 µM.

For the origin of these results see patent publication US20230348450A1, “CARBOXYLIC ACID-CONTAINING COMPOUNDS AS MODULATORS OF BIS-PHOSPHOGLYCERATE MUTASE FOR THE TREATMENT OF SICKLE CELL DISEASE” (Genzyme Corporation, priority 2020, published 2023).
